Laboratory results: patent US20250051820A1 (priority 2021, published 2025)
Where two headings read alike, the source gives them in different places.

Columns and labels:
High Five cells [1] = settings: for VP1 band intensity (relative value): MOI=0.1, day 4 supernatant, negative control = 100%
Method: High Five cells (Thermo Fisher Scientific, Express Five™ SFM) were seeded at a seeding concentration of 1×10^6 cells/mL so as to satisfy a culture scale of 30 mL.

High Five cells [2] = settings: MOI=0.5, day 4 supernatant; for improvement of the yield of the recombinant protein: relative to absence of calcium chloride
Method: A High Five cell culture solution in which cells were seeded at a seeding concentration of 1×10^6 cells/mL so as to satisfy a culture scale of 30 mL, was infected with a recombinant baculovirus prepared by integrating a gene sequence of a norovirus VP1 protein, at MOI=0.5. On Day 1 after the initiation of culture, calcium chloride was added so as to increase a final concentration by 2.5, 25, 250, 500 and 1 000 μM, and then, the cell culture was continued. On day 3, Benzonase (Merck) was added so as to be a final concentration of 50 U/mL and […] protease inhibitor tablets (Thermo Fisher Scientific) was added, and then, the cell culture was continued. On day 4, the culture supernatant was collected in the same manner as in Example 2 and subjected to Western Blotting.
For Western Blotting, after electrophoresis was carried out in the same manner as in Example 1, a transfer reaction was carried out from the gel to PVDF membrane (Merck) by a semi-dry transfer device (ATTO CORPORATION). After the transfer reaction, the PVDF membrane was soaked in a 10% skim milk-containing TBS and incubated at room temperature for two hours. After the PVDF membrane was washed three times with an appropriate amount of TBS and soaked in an anti-norovirus VP1 protein antibody (manufactured by the inventors) diluted with a 1% skim milk-containing TBST and incubated at 4° C. for from 18 to 20 hours. The PVDF membrane was washed five times with an appropriate amount of TBST, soaked in a HRP-labeled anti-mouse antibody (Jackson Immuno Research Laboratories) diluted with 1% skim milk-containing TBST, and incubated at room temperature for one hour. The PVDF membrane was washed five times with an appropriate amount of TBST and allowed to develop color with Western Lightning-Plus ECL (Perkin Elmer). The PVDF membrane was photographed by an image analyzer (Bio-Rad) and subjected to densitometric analysis.
Densitometric analysis was carried out in the same manner as in Example 1, and the relative amount of VP1 to the condition in the absence of calcium chloride was calculated.

High Five cells [3] = system: High Five cells
Method: High Five cells (Thermo Fisher Scientific, Express Five™ SFM) were seeded at a seeding concentration of 1×10^6 cells/mL so as to satisfy a culture scale of 30 mL. Twenty-four hours after the initiation of culture, calcium chloride was added so as to increase a final concentration by 1, 10 and 100 mM. Here, a calcium chloride-free group was used as a control. From day 3 to 5, the cell culture solution was sampled and stained with a 0.2% trypan blue solution. The numbers of viable cells and dead cells were counted by a hemocytometer. From the total cell count and the viable-cell count, the rate of viable cells was calculated.

Q: How did the “VP1 band intensity (relative value)” value (High Five cells [1]; 25 μM calcium chloride added 0 hr after infection) turn out when `[Ca+2].[Cl-].[Cl-]` [calcium chloride] was run?
A: 102%

Q: And the “improvement of the yield of a protein of interest” value (High Five cells [1]; 25 μM calcium chloride added 24 hours after the initiation of culture, relative to absence of calcium chloride)?
A: about 108

Q: What about the “VP1 band intensity (relative value)” value (High Five cells [1]; 25 μM calcium chloride added 24 hr after infection) of the same molecule?
A: 111%

Q: And the “VP1 band intensity (relative value)” value (High Five cells [1]; 25 μM calcium chloride added 48 hr after infection)?
A: 102%

Q: And the “improvement of the yield of the recombinant protein” value (High Five cells [2]; calcium chloride 25 μM added on Day 1)?
A: about 40%

Q: And the “improvement of the yield of the recombinant protein” value (High Five cells [2]; calcium chloride 250 μM added on Day 1)?
A: about 40%

Q: What about the “yield of the recombinant protein” value (High Five cells [2]; calcium chloride 500 μM added on Day 1) of the same molecule?
A: seems to decrease

Q: What about the “yield of the recombinant protein” value (High Five cells [2]; calcium chloride 1 000 μM added on Day 1) of the same molecule?
A: seems to decrease

Q: And the “concentration of calcium chloride that is not cytotoxic” value (High Five cells [3]; High Five cells, day 3 to 5)?
A: ≤ 1000 µM

Q: And the viable cell rate (High Five cells [3]; calcium chloride final concentration increased by 1 mM, added 24 h after initiation of culture, day 3 to 5, versus calcium chloride-free control)?
A: the same as in the control

Q: What about the viable cell rate (High Five cells [3]; calcium chloride final concentration increased by 10 mM, day 3) of the same molecule?
A: low

Q: And the viable cell rate (High Five cells [3]; calcium chloride final concentration increased by 100 mM, day 3)?
A: low
